Measurements published in publication PMC11243693, “Synthesis and Biological Evaluation of New Compounds with Nitroimidazole Moiety” (Molecules, 2024).
≈ marks a conversion by molar mass, not a printed value. Read-outs that look alike come from different tables or passages of the source.

What was measured:
Type in all cases: cell-based
[1] = test system: Staphylococcus aureus ATCC 25923; test: Broth microdilution, S. aureus ATCC 25923; details: Sa 25923
Procedure: (§1) The antibacterial activity of the obtained thiosemicarbazides and hydrazide–hydrazones was determined by evaluating their ability to inhibit microbial growth in vitro using the broth microdilution method, according to the guidelines of the European Committee on Antimicrobial Susceptibility Testing (EUCAST). The method involved the preparation of microbial suspensions with a standardized density of 0.5 on the McFarland scale (equivalent to 1.5 × 10^8 colony-forming units/mL for bacteria and […] for fungi). A solution of the test substances was then prepared (initial concentration 1000 µg/mL, diluted in sterile Mueller-Hinton broth for bacteria or Mueller-Hinton with 2% glucose for fungi). The test was carried out in 96-well polystyrene flat-bottom plates (Medlab, Poland) with 100 µL of appropriate sterile microbiological medium in each well. The first wells were filled with 200 µL of the test substance, diluted to the initial concentration, and then double-decreasing dilutions were made under aseptic conditions using an automatic pipette. The final step was the addition of a 10-fold diluted microbial suspension of 2 µL. At the same time, the following controls were included: (a) medium control (100 µL of sterile medium without microorganisms added), (b) microbial viability control, (c) test substance control (dilutions without added micro-organisms), (d) positive control of the drug used in the clinic. The plates thus prepared were incubated for 18 ± 2 h at 35 ± 2 °C under conditions optimal for the growth of the test microorganisms. After incubation, the spectrophotometric absorbance at 570 nm in each well of the plate was read. The aim of this part of the study was to determine two parameters: the minimum inhibitory concentration (MIC) and the minimum bactericidal or fungicidal concentration (MBC/MFC) of the test compound. […] The MBC value was determined by adding 5 µL of the contents of each well of the plate to solid sterile MHA or MHA + 2%glc medium for bacteria and fungi, respectively. The area on the plate where 99.9% inhibition of microbial growth was observed indicated the lethal concentration. In addition, the quotient MBC(MFC)/MIC could be determined to assess the nature of the activity of the test substance. If MBC(MFC)/MIC was <4, the test substance was bactericidal/fungicidal, whereas if MBC(MFC)/MIC was ≥4, it was bacteriostatic/fungistatic. Amoxicillin (Glentham Life Sciences, USA) and nystatin (Glentham Life Sciences, USA) were used as the controls for this assay.
(§2) The test was performed either on bacteria, comprising: Gram-positive (Staphylococcus aureus ATCC 25923, Staphylococcus aureus ATCC 6538, Staphylococcus aureus ATCC 43300 methicillin-resistant MRSA, Staphylococcus epidermidis ATCC 12228, Micrococcus luteus ATCC 10240, Bacillus subtilis ATCC 6633, Bacillus cereus ATCC 10876) and Gram-negative (Escherichia coli ATCC 25922, Pseudomonas aeruginosa ATCC 27853, Proteus mirabilis ATCC 12453, Klebsiella pneumoniae ATCC 13883) or yeast (Candida parapsilosis ATCC 22019, Candida glabrata ATCC 90030, Candida krusei ATCC 14243, Candida glabrata ATCC 15126, Candida tropicalis ATCC 1369, Candida auris CDC B11903, Candida lusitaniae ATCC 3449) reference strains from the American Type Culture Collection (ATCC) or the Centers for Disease Control and Prevention (CDC).

[2] = test system: Staphylococcus aureus ATCC 6538; test: Broth microdilution, S. aureus ATCC 6538; details: Sa 6538
Procedure: as §1, §2

[3] = test system: Staphylococcus aureus ATCC 43300 methicillin-resistant MRSA; test: Broth microdilution, S. aureus ATCC 43300 MRSA; details: Sa 43300 MRSA
Procedure: as §1, §2

[4] = test system: Staphylococcus epidermidis ATCC 12228; test: Broth microdilution, S. epidermidis ATCC 12228; details: Se 12228; for MBC/MIC Ratio: <4 bactericidal, ≥4 bacteriostatic
Procedure: as §1, §2

[5] = test system: Micrococcus luteus ATCC 10240; test: Broth microdilution, M. luteus ATCC 10240; details: Ml 10240; for MBC/MIC Ratio: <4 bactericidal, ≥4 bacteriostatic
Procedure: as §1, §2

[6] = test system: Bacillus subtilis ATCC 6633; test: Broth microdilution, B. subtilis ATCC 6633; details: Bs 6633
Procedure: as §1, §2

[7] = test system: Bacillus cereus ATCC 10876; test: Broth microdilution, B. cereus ATCC 10876; details: Bc 10876
Procedure: as §1, §2

[8] = test system: Candida parapsilosis ATCC 22019; test: Broth microdilution, C. parapsilosis ATCC 22019; details: Cp 22019
Procedure: as §1, §2

[9] = test system: Candida glabrata ATCC 90030; test: Broth microdilution, C. glabrata ATCC 90030; details: Cg 90030
Procedure: as §1, §2

[10] = test system: Candida krusei ATCC 14243; test: Broth microdilution, C. krusei ATCC 14243; details: Ck 14243
Procedure: as §1, §2

[11] = test system: Candida glabrata ATCC 15126; test: Broth microdilution, C. glabrata ATCC 15126; details: Cg 15126
Procedure: as §1, §2

[12] = test system: Candida tropicalis ATCC 1369; test: Broth microdilution, C. tropicalis ATCC 1369; details: Ct 1369
Procedure: as §1, §2

Candida auris CDC B11903 = test: Broth microdilution, C. auris CDC B11903; details: Ca B11903
Procedure: as §1, §2

[13] = test system: Candida lusitaniae ATCC 3449; test: Broth microdilution, C. lusitaniae ATCC 3449; details: Cl 3449
Procedure: as §1, §2

[14] = <4 bactericidal, ≥4 bacteriostatic

Row | Compound | MBC [1] | MIC [1] | MBC [2] | MIC [2] | MIC [3] | MBC [4] | MIC [4] | MBC/MIC Ratio [4] | MBC [5] | MIC [5] | MBC/MIC Ratio [5] | MBC [6] | MIC [6] | MIC [7] | MFC [8] | MIC [8] | MIC [9] | MIC [10] | MIC [11] | MFC [12] | also measured
1 | CC1(C)S[C@@H]2[C@H](NC(=O)[C@H](N)c3ccc(O)cc3)C(=O)N2[C@H]1C(=O)O [AMX, amoxicillin, reference compound] |  |  |  |  |  |  |  |  |  |  |  |  |  |  |  |  |  |  |  |  | MBC ([1]; Staphylococcus aureus, ATCC25923, read-out: MBC): 0.98 µg/mL (≈ 2.68 µM); MIC ([1]; Staphylococcus aureus, ATCC25923, read-out: MIC): 0.98 µg/mL (≈ 2.68 µM); MBC ([2]; Staphylococcus aureus, ATCC6538, read-out: MBC): 0.98 µg/mL (≈ 2.68 µM); MIC ([2]; Staphylococcus aureus, ATCC6538, read-out: MIC): 0.98 µg/mL (≈ 2.68 µM); MBC ([3]; Staphylococcus aureus, read-out: MBC): 31.2 µg/mL (≈ 85.5 µM); MIC ([3]; Staphylococcus aureus, read-out: MIC): 31.2 µg/mL (≈ 85.5 µM); MBC ([4]; Staphylococcus epidermidis, ATCC12228, read-out: MBC): 0.98 µg/mL (≈ 2.68 µM); MIC ([4]; Staphylococcus epidermidis, ATCC12228, read-out: MIC): 0.98 µg/mL (≈ 2.68 µM); MBC ([5]; Micrococcus luteus, ATCC10240, read-out: MBC): 0.98 µg/mL (≈ 2.68 µM); MIC ([5]; Micrococcus luteus, ATCC10240, read-out: MIC): 0.98 µg/mL (≈ 2.68 µM); MBC ([6]; Bacillus subtilis, ATCC6633, read-out: MBC): 125 µg/mL (≈ 342 µM); MIC ([6]; Bacillus subtilis, ATCC6633, read-out: MIC): 125 µg/mL (≈ 342 µM); MBC ([7]; Bacillus cereus, ATCC10876, read-out: MBC): 125 µg/mL (≈ 342 µM); MIC ([7]; Bacillus cereus, ATCC10876, read-out: MIC): 125 µg/mL (≈ 342 µM)
2 | Cn1cc([N+](=O)[O-])nc1C(=O)NNC(=S)Nc1ccccc1 [Compound 2] | >1000 µg/mL | 500 µg/mL (≈ 1560 µM) | >1000 µg/mL | 1000 µg/mL (≈ 3120 µM) | >1000 µg/mL | 1000 µg/mL (≈ 3120 µM) | 1000 µg/mL (≈ 3120 µM) | 1 | 1000 µg/mL (≈ 3120 µM) | 1000 µg/mL (≈ 3120 µM) | 1 | >1000 µg/mL | 1000 µg/mL (≈ 3120 µM) | >1000 µg/mL | >1000 µg/mL | 500 µg/mL (≈ 1560 µM) | >1000 µg/mL | >1000 µg/mL | >1000 µg/mL | >1000 µg/mL | MIC [12]: 500 µg/mL (≈ 1560 µM); MIC (Candida auris CDC B11903): >1000 µg/mL; MIC [13]: >1000 µg/mL
3 | Cn1cc([N+](=O)[O-])nc1C(=O)NNC(=S)Nc1ccc(Cl)cc1 [Compound 5] | >1000 µg/mL | 62.5 µg/mL (≈ 176 µM) | >1000 µg/mL | 125 µg/mL (≈ 352 µM) | 125 µg/mL (≈ 352 µM) | 125 µg/mL (≈ 352 µM) | 125 µg/mL (≈ 352 µM) | 1 | 125 µg/mL (≈ 352 µM) | 125 µg/mL (≈ 352 µM) | 1 | 62.5 µg/mL (≈ 176 µM) | 62.5 µg/mL (≈ 176 µM) | 250 µg/mL (≈ 705 µM) | >1000 µg/mL | 62.5 µg/mL (≈ 176 µM) | >1000 µg/mL | >1000 µg/mL | >1000 µg/mL | >1000 µg/mL | MBC [3]: >1000 µg/mL; MBC/MIC Ratio [6, 14]: 1; MBC [7]: 250 µg/mL (≈ 705 µM); MBC/MIC Ratio [7, 14]: 1; MIC [12]: 500 µg/mL (≈ 1410 µM); MIC (Candida auris CDC B11903): >1000 µg/mL; MIC [13]: >1000 µg/mL
